# Experimental data: patent EP4745153A1, “GLP-1, GIP AND GCG RECEPTOR […] USE THEREOF” (Jiangsu Hengrui Pharmaceuticals Co., Ltd., priority 2023, dated 2025)
# Where two headings read alike, the source gives them in different places. Starred links: 1 amine or outer side, 2 acyl side, 3 side chain; linkers in the order of their positions; H or OH if unused. Non-standard residues stand in square brackets, D forms with d. Residues, ends and D or L forms follow the SMILES beside them. Groups on a side chain read outwards from the residue. No end group written: not given here. *: point of attachment. C20 diacid = O=C(O)CCCCCCCCCCCCCCCCCCC(=O)*; γGlu = O=C(O)[C@H](CCC(=O)[*:2])N[*:1]; αMeK = C[C@](N)(CCCCN)C(=O)O; Iva = CC[C@](C)(N)C(=O)O; AEEA = NCCOCCOCC(=O)O; Aib = CC(C)(N)C(=O)O
# T1: human GIPR (Homo sapiens, UniProt P48546)
# T1 construct: expressed in transfected cells; host or cells: CHO-K1 clonal cell line
# T1 sequence (P48546 22-466): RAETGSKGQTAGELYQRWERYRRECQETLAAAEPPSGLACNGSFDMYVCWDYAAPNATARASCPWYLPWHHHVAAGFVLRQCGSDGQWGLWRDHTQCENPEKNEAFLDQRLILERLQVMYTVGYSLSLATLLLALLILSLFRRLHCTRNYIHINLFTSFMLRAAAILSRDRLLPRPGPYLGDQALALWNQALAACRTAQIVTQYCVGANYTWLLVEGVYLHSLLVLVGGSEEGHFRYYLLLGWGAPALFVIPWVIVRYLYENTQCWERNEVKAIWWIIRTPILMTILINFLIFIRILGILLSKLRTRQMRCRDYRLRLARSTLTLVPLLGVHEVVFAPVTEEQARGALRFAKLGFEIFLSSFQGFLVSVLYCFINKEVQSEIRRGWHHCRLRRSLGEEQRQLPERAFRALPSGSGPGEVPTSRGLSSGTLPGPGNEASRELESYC
# T2: human glucose-dependent insulinotropic polypeptide receptor (human, UniProt P48546 22-466)
# T2 sequence (looked up): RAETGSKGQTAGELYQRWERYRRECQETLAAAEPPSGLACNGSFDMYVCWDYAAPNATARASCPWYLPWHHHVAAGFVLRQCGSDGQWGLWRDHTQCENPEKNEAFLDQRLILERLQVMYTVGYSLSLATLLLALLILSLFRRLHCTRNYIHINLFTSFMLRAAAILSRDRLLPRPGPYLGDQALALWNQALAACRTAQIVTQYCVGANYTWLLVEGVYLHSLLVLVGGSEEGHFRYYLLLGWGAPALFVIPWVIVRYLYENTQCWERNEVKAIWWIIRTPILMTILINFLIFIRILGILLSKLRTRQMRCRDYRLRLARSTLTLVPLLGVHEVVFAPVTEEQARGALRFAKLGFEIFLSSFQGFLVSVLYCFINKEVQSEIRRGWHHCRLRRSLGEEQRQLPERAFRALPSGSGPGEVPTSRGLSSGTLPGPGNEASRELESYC
# Legend:
# [1] = In vivo efficacy in diet-induced obesity (DIO) rat model; conditions: DIO rats
# Protocol: In this experiment, a DIO rat model established on a 45% high-fat diet (HFD) was used to evaluate the effects of compounds on obesity-related indicators in DIO rats.
# After one week of acclimatization, all rats were randomly divided into two groups: a normal group and a model group. The rats in the model group were then fed 45% HFD (Medison: MD12032), while the rats in the normal group were fed normal food. The body weight of the rats was measured weekly to monitor the modeling process.
# DIO rats fed a high-fat diet for 37 weeks were weighed, and 75 DIO rats (approximately 1100g) and 8 rats (approximately 800g) on a normal diet (Chow diet) were selected and separated into individual cages. Each cage was fed approximately 100g of food at a time, and the food was changed every 48 hours. A preliminary sham dose experiment was then conducted. Subcutaneous acupuncture was performed on the neck once daily at 4 pm for 9 consecutive days. Body weight was measured before each acupuncture session and the effect of sham dose on body weight was observed. A curve of body weight changes over time was plotted. The formal dosing experiment was initiated after the body weight had stabilized.
# Six Chow diet rats (weighing approximately 800g) and 30 HFD rats (weighing approximately 1100g) were selected through a preliminary sham dose experiment for subsequent dosing experiments. […] During the experiment, all rats were housed in single cages. The compound was dissolved in PBS solution at pH 7.4. On the day of grouping (Day 1), rats in each group were given the drug by subcutaneous injection in the neck according to their body weight, once daily (QD), as detailed in Table 9. […] The body weight was measured once daily at 15:00 or before administration, and a curve of body weight changes over time was plotted. Food intake: 1-7 days, measured once daily at 15:00 or before administration; 8-40 days, measured once every three days at 15:00 or before administration. A curve of changes in daily/cumulative food intake over time was plotted. Table 9. Dosing information for experimental groups
# human GIPR = target: T1, human GIPR; assay: cAMP HTRF agonist activity assay in CHO-K1 cells expressing GIPR; assay type: cell-based
# Method in brief: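 Clonal CHO-K1 lines, 5000 cells/well, exposed to polypeptides for 30 min at 37°C. Intracellular cAMP read by HTRF (cAMP-d2 conjugate plus anti-cAMP-Eu cryptate in lysis buffer). Relative EC50 from four-parameter nonlinear fit of percent maximum response against concentration.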
# [2] = In vivo efficacy in diet-induced obesity (DIO) mouse model; set-up: species or system C57BL/6J mice; conditions: 10 nmol/kg subcutaneous once daily for 24 days
# Excerpt: In this example, a DIO mouse model established by high-fat diet induction was used to evaluate the effects on and improvement of obesity and diabetes-related indicators in DIO mice after subcutaneous injection of some of the compounds in the present disclosure.
# 4.1 Experimental methods: Obese male C57BL/6J mice (23-24 weeks old, obtained from Beijing Vital River Laboratory Animal Technology Co., Ltd.) induced by a high-fat diet were purchased. Six-week-old male C57BL/6J mice were fed a 60% high-fat diet (RD D12492) until their body weight reached 45-50g to obtain DIO model mice. After arriving at the facility and undergoing a week of acclimatization feeding, the animals were randomly divided into groups according to their body weight and administered vehicle (model group), LY3437943, Compound 15, Compound 16, Compound 17 and Compound 18 via subcutaneous injection in the neck. The compound was administered at a dose of 10 nmol/kg, and the frequency of administration was once daily via subcutaneous injection for 24 days. Each group contained 5 DIO mice. According to the experimental design, the body weight of each mouse was weighed and recorded daily at 3 pm or before administration, the average body weight of each group of mice was calculated, and a curve of body weight change over time was plotted. After the experiment, the fat and other organs of the mice were removed from various parts of the body, weighed, and recorded.
# [3] = Pharmacokinetics in mice after single intravenous injection; set-up: species or system C57 mice; conditions: mouse, in vivo, male C57 mice, single intravenous dose 200 nmol/kg, plasma
# Method in brief: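 Male C57 mice (~25 g, 4-6 weeks, n=3) received a single i.v. dose of 200 nmol/kg in 1×PBS. Plasma collected from 5 min to 72 h was methanol-precipitated with verapamil internal standard and quantified by LC-MS (ESI positive, MRM); PK parameters were calculated by PKSolver.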
# [4] = target: human glucagon-like peptide-1 receptor (human, UniProt P43220 24-463); assay: cell-based or functional assay
# [5] = target: T2, human glucose-dependent insulinotropic …; assay: cell-based or functional assay
# human glucagon receptor = human glucagon receptor (human, UniProt P47871 26-477); assay: cell-based or functional assay
# Chain of human glucagon receptor (P47871 26-477): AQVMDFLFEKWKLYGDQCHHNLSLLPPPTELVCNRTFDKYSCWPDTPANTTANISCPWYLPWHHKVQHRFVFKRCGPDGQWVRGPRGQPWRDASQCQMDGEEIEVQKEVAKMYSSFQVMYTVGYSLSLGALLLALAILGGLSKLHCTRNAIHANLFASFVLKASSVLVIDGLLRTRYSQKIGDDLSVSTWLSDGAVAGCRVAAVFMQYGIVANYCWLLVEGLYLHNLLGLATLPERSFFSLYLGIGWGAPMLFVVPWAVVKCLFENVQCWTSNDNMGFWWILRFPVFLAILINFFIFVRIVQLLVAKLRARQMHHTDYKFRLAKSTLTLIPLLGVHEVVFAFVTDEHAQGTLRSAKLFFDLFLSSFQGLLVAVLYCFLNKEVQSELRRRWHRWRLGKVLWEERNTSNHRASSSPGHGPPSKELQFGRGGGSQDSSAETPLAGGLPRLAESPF
# [6] = target: T2, human glucose-dependent insulinotropic …; assay: cell-based or functional assay; remark: listed apart in the source
# [7] = after dose adjustment, 3 nmol/kg subcutaneous QD
molecule,measurement,setting,value
CC[C@H](C)[C@H](NC(=O)[C@H](CO)NC(=O)[C@H](Cc1ccc(O)cc1)NC(=O)[C@H](CC(=O)O)NC(=O)[C@H](CO)NC(=O)[C@@H](NC(=O)[C@H](Cc1ccccc1)NC(=O)[C@@H](NC(=O)CNC(=O)[C@H](Cc1c[nH]cn1)NC(=O)C(C)(C)NC(=O)[C@@H](N)Cc1c[nH]cn1)[C@@H](C)O)[C@@H](C)O)C(=O)N[C@@H](CC(C)C)C(=O)N[C@@H](CC(C)C)C(=O)N[C@@H](CCC(=O)O)C(=O)N[C@@H](CCCCNC(=O)COCCOCCNC(=O)COCCOCCNC(=O)CC[C@H](NC(=O)CCCCCCCCCCCCCCCCCCC(=O)O)C(=O)O)C(=O)N[C@@H](CCCCN)C(=O)N[C@@H](C)C(=O)N[C@@H](C)C(=O)N[C@@H](CCC(N)=O)C(=O)N[C@@H](CCC(=O)O)C(=O)N[C@@H](Cc1ccccc1)C(=O)N[C@H](C(=O)N[C@@H](CCC(=O)O)C(=O)N[C@@H](Cc1c[nH]c2ccccc12)C(=O)N[C@@H](CC(C)C)C(=O)N[C@@H](CC(C)C)C(=O)N[C@@H](C)C(=O)NCC(=O)NCC(=O)N1CCC[C@H]1C(=O)N[C@@H](CO)C(=O)N[C@@H](CO)C(=O)NCC(=O)N[C@@H](C)C(=O)N1CCC[C@H]1C(=O)N1CCC[C@H]1C(=O)N1CCC[C@H]1C(=O)N[C@@H](CO)C(N)=O)C(C)C [Compound 0120] (H-H[Aib]HGTFTSDYSILLEK([AEEA-AEEA-γGlu-C20 diacid])KAAQEFVEWLLAGGPSSGAPPPS-NH2),24h food intake compared with the model group,[1]; [7],significantly reduced
same,cumulative food intake compared with the model group,[1]; [7],significantly reduced
same,cumulative food intake,"[1]; entire administration period (before and after dose adjustment), 0.3 then 3 nmol/kg subcutaneous QD",258.8 ± 23.5 g
same,body weight loss at the end of the experiment,"[1]; subcutaneous QD, 0.3 nmol/kg adjusted to 3 nmol/kg from day 15",30.2%
same,body weight compared with the model group,"[1]; subcutaneous QD, 1 nmol/kg, before adjusting the administration dose",decreasing trend
same,EC50,human GIPR,0.002 nM
same,body weight of DIO mice compared with the test group given the vehicle,[2],significant reduction in body weight
same,final body weight relative to body weight of mice on a normal diet (Chow),[2]; indicating good safety,≥ 80%
same,body weight reduction at the experimental endpoint,[2]; DIO mice,36.6%
same,AUC(0-inf),[3],94.1 µM·h
same,C0,[3],9.93 µM
same,clearance,[3]; read-out: CLp,2.04 mL/h/kg
same,half-life,[3]; read-out: T1/2 (converted),14.7 h
H[Aib]HGTFTSDYS[αMeK]LLEK([AEEA-AEEA-γGlu-C20 diacid])QAA[Iva]EFVEWLLAGGPSSGAPPPS-NH2 [Compound No. 0128],Activity against human GLP-1R (EC50 nM),[4],0.04 nM
same,Activity against human GIPR (EC50 nM),[5],0.0005 nM
H[Aib]HGTFTSDYS[αMeK]YLEK([AEEA-AEEA-γGlu-C20 diacid])KAAQEFVEWLIAGGPSSGAPPPS-NH2 (N-terminus assumed; SMILES CC[C@H](C)[C@H](NC(=O)[C@H](CC(C)C)NC(=O)[C@H](Cc1c[nH]c2ccccc12)NC(=O)[C@H](CCC(=O)O)NC(=O)[C@@H](NC(=O)[C@H](Cc1ccccc1)NC(=O)[C@H](CCC(=O)O)NC(=O)[C@H](CCC(N)=O)NC(=O)[C@H](C)NC(=O)[C@H](C)NC(=O)[C@H](CCCCN)NC(=O)[C@H](CCCCNC(=O)COCCOCCNC(=O)COCCOCCNC(=O)CC[C@H](NC(=O)CCCCCCCCCCCCCCCCCCC(=O)O)C(=O)O)NC(=O)[C@H](CCC(=O)O)NC(=O)[C@H](CC(C)C)NC(=O)[C@H](Cc1ccc(O)cc1)NC(=O)[C@](C)(CCCCN)NC(=O)[C@H](CO)NC(=O)[C@H](Cc1ccc(O)cc1)NC(=O)[C@H](CC(=O)O)NC(=O)[C@H](CO)NC(=O)[C@@H](NC(=O)[C@H](Cc1ccccc1)NC(=O)[C@@H](NC(=O)CNC(=O)[C@H](Cc1c[nH]cn1)NC(=O)C(C)(C)NC(=O)[C@@H](N)Cc1c[nH]cn1)[C@@H](C)O)[C@@H](C)O)C(C)C)C(=O)N[C@@H](C)C(=O)NCC(=O)NCC(=O)N1CCC[C@H]1C(=O)N[C@@H](CO)C(=O)N[C@@H](CO)C(=O)NCC(=O)N[C@@H](C)C(=O)N1CCC[C@H]1C(=O)N1CCC[C@H]1C(=O)N1CCC[C@H]1C(=O)N[C@@H](CO)C(N)=O) [Compound No. 0111],Activity against human GCGR (EC50 nM),human glucagon receptor,0.552 nM
same,Activity against human GIPR (EC50 nM),[6],0.024 nM
H[Aib]HGTFTSDYS[αMeK]YLEK([AEEA-AEEA-γGlu-C20 diacid])KAQQEFVEWLLAGGPSSGAPPPS-NH2 [Compound No. 0113],Activity against human GCGR (EC50 nM),human glucagon receptor,5.91 nM
same,Activity against human GIPR (EC50 nM),[6],0.015 nM
